Source: patent US4442044A, “Process for preparing monoesters and diesters of N-alkyl substituted amino methyl phosphonic acid” (priority 1983, dated 1984)

Key:
Test in all cases: post-emergent herbicidal activity, greenhouse
Type in all cases: in vivo
Settings in all cases: Table I
Canada Thistle = system: Canada Thistle
From the text: (§1) A good grade of top soil is placed in aluminum pans having holes in the bottom and compacted to a depth of 0.95 to 1.27 cm. from the top of the pan. A predetermined number of seeds of each of several dicotyledonous and monocotyledonous annual plant species and/or vegetative propagules for the perennial plant species were placed on the soil and pressed into the soil surface. The seeds and/or vegetative propagules are covered with soil and leveled. The pans are then placed on a sand bench in the greenhouse and watered from below as needed. After the plants reach the desired age (two to three weeks), each pan except for the control pans is removed individually to a spraying chamber and sprayed by means of an atomizer operating at a positive air pressure of approximately 1.46 kg/cm^2 absolute. The atomizer contains 6 ml. of a solution or suspension of the chemical. In that 6 ml., is an amount of a cyclohexanone emulsifying agent mixture to give a spray solution or suspension which contains about 0.4% by weight of the emulsifier. The spray solution or suspension contains a sufficient amount of the candidate chemical in order to give application rates corresponding to those set forth in the tables. The spray solution is prepared by taking an aliquot of a 1.0% by weight stock solution or suspension of the candidate chemical in an organic solvent such as acetone or tetrahydrofuran or in water. The emulsifying agent employed is a mixture comprising 35 weight percent butylamine dodecylbenzene sulfonate and 65 weight percent of a tall oil ethylene oxide condensate having about 11 moles of ethylene oxide per mole of tall oil. The pans are returned to the greenhouse and watered as before and the injury to the plants as compared to the control is observed at approximately two and four weeks as indicated in the tables under WAT and the results recorded. In some instances, the two-week observations are omitted.
(§2) The post-emergent herbicidal activity index used in Tables I and II is as follows: […]

Johnsongrass = system: Johnsongrass
From the text: as §1, §2

Morningglory = system: Morningglory
From the text: as §1, §2

Velvetleaf = system: Velvetleaf
From the text: as §1, §2

Cocklebur = system: Cocklebur
From the text: as §1, §2

Downy Brome = system: Downy Brome
From the text: as §1, §2

Quackgrass = system: Quackgrass
From the text: as §1, §2

Barnyardgrass = system: Barnyardgrass
From the text: as §1, §2

Smartweed = system: Smartweed
From the text: as §1, §2

Lambsquarters = system: Lambsquarters
From the text: as §1, §2

Yellow Nutsedge = system: Yellow Nutsedge
From the text: as §1, §2

SMILES: CC(C#N)OP(=O)(CNC(C)(C)C)OC(C)C#N (centres unmarked) [Example 4, phosphonic acid, [[(1,1-dimethylethyl)amino]methyl]-,bis(1-cyanoethyl) ester]
- post-emergent herbicidal activity index (Canada Thistle; 2 WAT, 11.2 kg/h): 0 (0-24% control)
- post-emergent herbicidal activity index (Johnsongrass; 2 WAT, 11.2 kg/h): 0 (0-24% control)
- post-emergent herbicidal activity index (Morningglory; 2 WAT, 11.2 kg/h): 0 (0-24% control)
- post-emergent herbicidal activity index (Velvetleaf; 2 WAT, 11.2 kg/h): 0 (0-24% control)
- post-emergent herbicidal activity index (Cocklebur; 2 WAT, 11.2 kg/h): 0 (0-24% control)
- post-emergent herbicidal activity index (Downy Brome; 2 WAT, 11.2 kg/h): 0 (0-24% control)
- post-emergent herbicidal activity index (Quackgrass; 2 WAT, 11.2 kg/h): 0 (0-24% control)
- post-emergent herbicidal activity index (Barnyardgrass; 2 WAT, 11.2 kg/h): 1 (25-49% control)
- post-emergent herbicidal activity index (Smartweed; 2 WAT, 11.2 kg/h): 1 (25-49% control)
- post-emergent herbicidal activity index (Lambsquarters; 2 WAT, 11.2 kg/h): 1 (25-49% control)
- post-emergent herbicidal activity index (Yellow Nutsedge; 2 WAT, 11.2 kg/h): 0 (0-24% control)

SMILES: N#CCCOP(=O)(CNCC#N)OCCC#N [Example 11, phosphonic acid, [[(cyanomethyl)amino]-methyl],bis 2-(cyanoethyl)ester]
- post-emergent herbicidal activity index (Canada Thistle; 2 WAT, 5.6 kg/h): 0 (0-24% control)
- post-emergent herbicidal activity index (Canada Thistle; 4 WAT, 11.2 kg/h): 2 (50-74% control)
- post-emergent herbicidal activity index (Johnsongrass; 2 WAT, 5.6 kg/h): 0 (0-24% control)
- post-emergent herbicidal activity index (Johnsongrass; 4 WAT, 11.2 kg/h): 0 (0-24% control)
- post-emergent herbicidal activity index (Morningglory; 2 WAT, 5.6 kg/h): 0 (0-24% control)
- post-emergent herbicidal activity index (Morningglory; 4 WAT, 11.2 kg/h): 2 (50-74% control)
- post-emergent herbicidal activity index (Velvetleaf; 2 WAT, 5.6 kg/h): 0 (0-24% control)
- post-emergent herbicidal activity index (Velvetleaf; 4 WAT, 11.2 kg/h): 0 (0-24% control)
- post-emergent herbicidal activity index (Cocklebur; 2 WAT, 5.6 kg/h): 0 (0-24% control)
- post-emergent herbicidal activity index (Cocklebur; 4 WAT, 11.2 kg/h): 1 (25-49% control)
- post-emergent herbicidal activity index (Downy Brome; 2 WAT, 5.6 kg/h): 0 (0-24% control)
- post-emergent herbicidal activity index (Downy Brome; 4 WAT, 11.2 kg/h): 0 (0-24% control)
- post-emergent herbicidal activity index (Quackgrass; 2 WAT, 5.6 kg/h): 0 (0-24% control)
- post-emergent herbicidal activity index (Quackgrass; 4 WAT, 11.2 kg/h): 1 (25-49% control)
- post-emergent herbicidal activity index (Barnyardgrass; 2 WAT, 5.6 kg/h): 0 (0-24% control)
- post-emergent herbicidal activity index (Barnyardgrass; 4 WAT, 11.2 kg/h): 1 (25-49% control)
- post-emergent herbicidal activity index (Smartweed; 2 WAT, 5.6 kg/h): 0 (0-24% control)
- post-emergent herbicidal activity index (Smartweed; 4 WAT, 11.2 kg/h): 1 (25-49% control)
- post-emergent herbicidal activity index (Lambsquarters; 2 WAT, 5.6 kg/h): 1 (25-49% control)
- post-emergent herbicidal activity index (Lambsquarters; 4 WAT, 11.2 kg/h): 1 (25-49% control)
- post-emergent herbicidal activity index (Yellow Nutsedge; 2 WAT, 5.6 kg/h): 0 (0-24% control)
- post-emergent herbicidal activity index (Yellow Nutsedge; 4 WAT, 11.2 kg/h): 1 (25-49% control)

SMILES: CCOC(=O)CNCP(=O)(OC(CC(=O)OCC)C(=O)OCC)OC(CC(=O)OCC)C(=O)OCC (centres unmarked) [Example 14, butanoic acid, 2,2'-[[[(2-ethoxy-2-oxo-ethyl)amino]methyl]phosphinylidene]bis(oxy)-bis-,tetraethyl ester]
- post-emergent herbicidal activity index (Canada Thistle; 2 WAT, 5.6 kg/h): 0 (0-24% control)
- post-emergent herbicidal activity index (Canada Thistle; 2 WAT, 11.2 kg/h): 0 (0-24% control)
- post-emergent herbicidal activity index (Canada Thistle; 2 WAT, 56.0 kg/h): 4 (100% control)
- post-emergent herbicidal activity index (Canada Thistle; 4 WAT, 56.0 kg/h): 1 (25-49% control)
- post-emergent herbicidal activity index (Johnsongrass; 2 WAT, 5.6 kg/h): 0 (0-24% control)
- post-emergent herbicidal activity index (Johnsongrass; 2 WAT, 11.2 kg/h): 0 (0-24% control)
- post-emergent herbicidal activity index (Johnsongrass; 2 WAT, 56.0 kg/h): 3 (75-99% control)
- post-emergent herbicidal activity index (Johnsongrass; 4 WAT, 56.0 kg/h): 3 (75-99% control)
- post-emergent herbicidal activity index (Morningglory; 2 WAT, 5.6 kg/h): 0 (0-24% control)
- post-emergent herbicidal activity index (Morningglory; 2 WAT, 11.2 kg/h): 0 (0-24% control)
- post-emergent herbicidal activity index (Morningglory; 2 WAT, 56.0 kg/h): 3 (75-99% control)
- post-emergent herbicidal activity index (Morningglory; 4 WAT, 56.0 kg/h): 2 (50-74% control)
- post-emergent herbicidal activity index (Velvetleaf; 2 WAT, 5.6 kg/h): 0 (0-24% control)
- post-emergent herbicidal activity index (Velvetleaf; 2 WAT, 11.2 kg/h): 0 (0-24% control)
- post-emergent herbicidal activity index (Velvetleaf; 2 WAT, 56.0 kg/h): 4 (100% control)
- post-emergent herbicidal activity index (Velvetleaf; 4 WAT, 56.0 kg/h): 3 (75-99% control)
- post-emergent herbicidal activity index (Cocklebur; 2 WAT, 5.6 kg/h): 0 (0-24% control)
- post-emergent herbicidal activity index (Cocklebur; 2 WAT, 11.2 kg/h): 0 (0-24% control)
- post-emergent herbicidal activity index (Cocklebur; 2 WAT, 56.0 kg/h): 4 (100% control)
- post-emergent herbicidal activity index (Cocklebur; 4 WAT, 56.0 kg/h): 4 (100% control)
- post-emergent herbicidal activity index (Downy Brome; 2 WAT, 5.6 kg/h): 0 (0-24% control)
- post-emergent herbicidal activity index (Downy Brome; 2 WAT, 11.2 kg/h): 0 (0-24% control)
- post-emergent herbicidal activity index (Downy Brome; 2 WAT, 56.0 kg/h): 3 (75-99% control)
- post-emergent herbicidal activity index (Downy Brome; 4 WAT, 56.0 kg/h): 2 (50-74% control)
- post-emergent herbicidal activity index (Quackgrass; 2 WAT, 5.6 kg/h): 0 (0-24% control)
- post-emergent herbicidal activity index (Quackgrass; 2 WAT, 11.2 kg/h): 0 (0-24% control)
- post-emergent herbicidal activity index (Quackgrass; 2 WAT, 56.0 kg/h): 4 (100% control)
- post-emergent herbicidal activity index (Quackgrass; 4 WAT, 56.0 kg/h): 3 (75-99% control)
- post-emergent herbicidal activity index (Barnyardgrass; 2 WAT, 5.6 kg/h): 0 (0-24% control)
- post-emergent herbicidal activity index (Barnyardgrass; 2 WAT, 11.2 kg/h): 0 (0-24% control)
- post-emergent herbicidal activity index (Barnyardgrass; 2 WAT, 56.0 kg/h): 4 (100% control)
- post-emergent herbicidal activity index (Barnyardgrass; 4 WAT, 56.0 kg/h): 3 (75-99% control)
- post-emergent herbicidal activity index (Smartweed; 2 WAT, 5.6 kg/h): 0 (0-24% control)
- post-emergent herbicidal activity index (Smartweed; 2 WAT, 11.2 kg/h): 0 (0-24% control)
- post-emergent herbicidal activity index (Smartweed; 2 WAT, 56.0 kg/h): 4 (100% control)
- post-emergent herbicidal activity index (Smartweed; 4 WAT, 56.0 kg/h): 3 (75-99% control)
- post-emergent herbicidal activity index (Lambsquarters; 2 WAT, 5.6 kg/h): 0 (0-24% control)
- post-emergent herbicidal activity index (Lambsquarters; 2 WAT, 11.2 kg/h): 0 (0-24% control)
- post-emergent herbicidal activity index (Lambsquarters; 2 WAT, 56.0 kg/h): 4 (100% control)
- post-emergent herbicidal activity index (Lambsquarters; 4 WAT, 56.0 kg/h): 4 (100% control)
- post-emergent herbicidal activity index (Yellow Nutsedge; 2 WAT, 5.6 kg/h): 0 (0-24% control)
- post-emergent herbicidal activity index (Yellow Nutsedge; 2 WAT, 11.2 kg/h): 0 (0-24% control)
- post-emergent herbicidal activity index (Yellow Nutsedge; 2 WAT, 56.0 kg/h): 4 (100% control)
- post-emergent herbicidal activity index (Yellow Nutsedge; 4 WAT, 56.0 kg/h): 1 (25-49% control)
